Common to all, as to type: cell-based
Test [1] concerns Streptococcus pneumoniae ATCC 49619. Description: In vitro antibacterial activity (MIC), microdilution broth method, strain E. The following applies: ATCC49619, 35° C., 16-20 hours. As to the method:
(§1) Minimal inhibitory concentration (MIC) is an indicator of in vitro antibacterial activity. […] The in vitro antimicrobial activity of representative compounds of the present invention was determined by the microdilution broth method following the test method from the National Committee for Clinical Laboratory Standards (NCCLS). This method is described in the NCCLS Document M7-A4, Vol. 17, No. 2, “Methods for Dilution Antimicrobial Susceptibility Test for Bacteria that Grow Aerobically—Fourth Edition”, which is incorporated herein by reference.
(§2) In this method two-fold serial dilutions of drug in cation adjusted Mueller-Hinton broth were added to wells in microdilution trays. The test organisms were prepared by adjusting the turbidity of actively growing broth cultures so that the final concentration of test organism after it is added to the wells was approximately 5×10^4 CFU/well. Following inoculation of the microdilution trays, the trays were incubated at 35° C. for 16-20 hours and then read. The amount of growth in the wells containing the test compound was compared with the amount of growth in the growth-control wells (no test compound) used in each tray.
(§3) Representative compounds of the present invention were tested against a variety of pathogenic bacteria with results as listed in Table 3, below.
(In broth dilution the organism is exposed to a series of concentrations in liquid medium.)

The test system of test [2] is strain C, fluoroquinolone-resistant clinical isolate of Streptococcus pneumoniae. Description: In vitro antibacterial activity (MIC), microdilution broth method, strain C. Conditions: read-out: MIC (μg/mL) C. Here is the method:
as §1, §2, §3

In test [3] the test system is Staphylococcus aureus OC4172. In words: In vitro antibacterial activity (MIC), microdilution broth method, strain A. Conditions: cation adjusted Mueller-Hinton broth, 35° C., 16-20 hours. Here is the method:
as §1, §2, §3

The test system of test [4] is strain D, fluoroquinolone-resistant clinical isolate of Streptococcus pneumoniae. Description: In vitro antibacterial activity (MIC), microdilution broth method, strain D. Conditions: read-out: MIC (μg/mL) D. As to the method: as §1, §2, §3
The test system of test [5] is strain B, fluoroquinolone-resistant clinical isolate of Streptococcus pneumoniae. In words: In vitro antibacterial activity (MIC), microdilution broth method, strain B. Conditions: read-out: MIC (μg/mL) B. Here is the method: as §1, §2, §3

≈ marks a conversion by molar mass, not a printed value. Where only a bound is given, the exact number is not on record here.

As for `O=C(O)c1cn(C2CC2)c2c(OC(F)F)c(-c3cc4n(c3)CCNC4)ccc2c1=O` [Compound 1, 1-Cyclopropyl-8-difluoromethoxy-4-oxo-7-(1,2,3,4-tetrahydro-pyrrolo[1,2-a]pyrazin-7-yl)-1,4-dihydro-quinoline-3-carboxylic acid], the MIC came out at 0.5 µg/mL (≈ 1.2 µM) in test [1]; 8 µg/mL (≈ 19.3 µM) in test [2]; 0.06 µg/mL (≈ 0.144 µM) in test [3]; 8 µg/mL (≈ 19.3 µM) in test [4]; 1 µg/mL (≈ 2.41 µM) in test [5].
In the case of `O=C(O)c1cn(C2CC2)c2c(OC(F)F)c(C3=C[C@H]4CN(Cc5ccccc5)CCN4C3)ccc2c1=O` [Compound 2, 7-(2-Benzyl-1,2,3,4,6,8a-hexahydro-pyrrolo[1,2S-a]pyrazin-7-yl)-1-cyclopropyl-8-difluoromethoxy-4-oxo-1,4-dihydro-quinoline-3-carboxylic acid], the MIC is 8 µg/mL (≈ 15.8 µM) in test [1]; over 16 µg/mL in test [2]; 0.5 µg/mL (≈ 0.985 µM) in test [3]; over 16 µg/mL in test [4]; over 16 µg/mL in test [5].
`O=C(O)c1cn(C2CC2)c2c(OC(F)F)c(C3C[C@H]4CNCCN4C3)ccc2c1=O` (stereo partly drawn) [Compound 3, 1-Cyclopropyl-8-difluoromethoxy-7-(octahydro-pyrrolo[1,2S-a]pyrazin-7-yl)-4-oxo-1,4-dihydro-quinoline-3-carboxylic acid]: the MIC in test [1] was over 16 µg/mL; in test [2], over 16 µg/mL; in test [3], 8 µg/mL (≈ 19.1 µM); in test [4] it was over 16 µg/mL; in test [5], over 16 µg/mL.
Take `CN1CCn2cc(-c3ccc4c(=O)c(C(=O)O)cn(C5CC5)c4c3OC(F)F)cc2C1` [Compound 4, 1-Cyclopropyl-8-difluoromethoxy-7-(2-methyl-1,2,3,4-tetrahydro-pyrrolo[1,2-a]pyrazin-7-yl)-4-oxo-1,4-dihydro-quinoline-3-carboxylic acid]: the MIC in test [1] is 2 µg/mL (≈ 4.66 µM); in test [2] it was over 16 µg/mL; in test [3], 0.25 µg/mL (≈ 0.582 µM); in test [4], over 16 µg/mL; in test [5] it was 2 µg/mL (≈ 4.66 µM).
Consider `CN1CCN2CC(c3ccc4c(=O)c(C(=O)O)cn(C5CC5)c4c3OC(F)F)C[C@H]2C1` (stereo partly shown) [Compound 5, 1-Cyclopropyl-8-difluoromethoxy-7-(2-methyl-octahydro-pyrrolo[1,2s-a]pyrazin-7-yl)-4-oxo-1,4-dihydro-quinoline-3-carboxylic acid], for which the MIC was over 16 µg/mL in test [1]; over 16 µg/mL in test [2]; 8 µg/mL (≈ 18.5 µM) in test [3]; over 16 µg/mL in test [4]; over 16 µg/mL in test [5].
Turning to `C[C@H]1CN2CC(c3ccc4c(=O)c(C(=O)O)cn(C5CC5)c4c3OC(F)F)C[C@H]2CN1` (stereo partly drawn) [Compound 6, 1-Cyclopropyl-8-difluoromethoxy-7-(3S-methyl-octahydro-pyrrolo[1,2S-a]pyrazin-7-yl)-4-oxo-1,4-dihydro-quinoline-3-carboxylic acid], the MIC in test [1] is over 16 µg/mL; in test [2], over 16 µg/mL; in test [3], 4 µg/mL (≈ 9.23 µM); in test [4], over 16 µg/mL; in test [5], over 16 µg/mL.
As for `C[C@H]1Cn2cc(-c3ccc4c(=O)c(C(=O)O)cn(C5CC5)c4c3OC(F)F)cc2CN1` [Compound 7, 1-Cyclopropyl-8-difluoromethoxy-7-(3S-methyl-1,2,3,4-tetrahydro-pyrrolo[1,2-a]pyrazin-7-yl)-4-oxo-1,4-dihydro-quinoline-3-carboxylic acid], the MIC in test [1] was 1 µg/mL (≈ 2.33 µM); in test [2] it was 8 µg/mL (≈ 18.6 µM); in test [3], 0.12 µg/mL (≈ 0.279 µM); in test [4] it was 16 µg/mL (≈ 37.3 µM); in test [5] it was 1 µg/mL (≈ 2.33 µM).
Consider `C[C@@H]1NCCn2cc(-c3ccc4c(=O)c(C(=O)O)cn(C5CC5)c4c3OC(F)F)cc21` [Compound 8, 1-Cyclopropyl-8-difluoromethoxy-7-(1S-methyl-1,2,3,4-tetrahydro-pyrrolo[1,2-a]pyrazin-7-yl)-4-oxo-1,4-dihydro-quinoline-3-carboxylic acid], for which the MIC is 1 µg/mL (≈ 2.33 µM) in test [1]; 16 µg/mL (≈ 37.3 µM) in test [2]; 0.5 µg/mL (≈ 1.16 µM) in test [3]; over 16 µg/mL in test [4]; 4 µg/mL (≈ 9.31 µM) in test [5].
The like results for `C[C@H]1NCCn2cc(-c3ccc4c(=O)c(C(=O)O)cn(C5CC5)c4c3OC(F)F)cc21` [Compound 9, 1-Cyclopropyl-8-difluoromethoxy-7-(1R-methyl-1,2,3,4-tetrahydro-pyrrolo[1,2-a]pyrazin-7-yl)-4-oxo-1,4-dihydro-quinoline-3-carboxylic acid] were, in that order, 1 µg/mL (≈ 2.33 µM), 16 µg/mL (≈ 37.3 µM), 0.5 µg/mL (≈ 1.16 µM), over 16 µg/mL and 4 µg/mL (≈ 9.31 µM).
The like results for `CN[C@@H](C)C(=O)N1CCn2cc(-c3ccc4c(=O)c(C(=O)O)cn(C5CC5)c4c3OC(F)F)cc2C1` [Compound 10, 1-Cyclopropyl-8-difluoromethoxy-7-[2S-(2-methylamino-propionyl)-1,2,3,4-tetrahydro-pyrrolo[1,2-a]pyrazin-7-yl]-4-oxo-1,4-dihydro-quinoline-3-carboxylic acid] were, in that order, 2 µg/mL (≈ 4 µM), 16 µg/mL (≈ 32 µM), 0.25 µg/mL (≈ 0.499 µM), over 16 µg/mL and 4 µg/mL (≈ 7.99 µM).
The like results for `COc1c(-c2cc3n(c2)C[C@H](C)NC3)c(F)cc2c(=O)c(C(=O)O)cn(C3CC3)c12` [Compound 11, 1-Cyclopropyl-6-fluoro-8-methoxy-7-(3S-methyl-1,2,3,4-tetrahydro-pyrrolo[1,2-a]pyrazin-7-yl)-4-oxo-1,4-dihydro-quinoline-3-carboxylic acid] were, in that order, 0.12 µg/mL (≈ 0.292 µM), 1 µg/mL (≈ 2.43 µM), 0.03 µg/mL (≈ 0.0729 µM), 4 µg/mL (≈ 9.72 µM) and 0.5 µg/mL (≈ 1.22 µM).
As for `COc1c(-c2cc3n(c2)C[C@@H](C)NC3)c(F)cc2c(=O)c(C(=O)O)cn(C3CC3)c12` [Compound 12, 1-Cyclopropyl-6-fluoro-8-methoxy-7-(3R-methyl-1,2,3,4-tetrahydro-pyrrolo[1,2-a]pyrazin-7-yl)-4-oxo-1,4-dihydro-quinoline-3-carboxylic acid], the MIC in test [1] came out at 0.25 µg/mL (≈ 0.608 µM); in test [2], 2 µg/mL (≈ 4.86 µM); in test [3] it was 0.03 µg/mL (≈ 0.0729 µM); in test [4] it was 8 µg/mL (≈ 19.4 µM); in test [5], 1 µg/mL (≈ 2.43 µM).
The like results for `COc1c(-c2cc3n(c2)C[C@H](C)N(C)C3)c(F)cc2c(=O)c(C(=O)O)cn(C3CC3)c12` [Compound 13, 1-Cyclopropyl-7-(2,3S-dimethyl-1,2,3,4-tetrahydro-pyrrolo[1,2-a]pyrazin-7-yl)-6-fluoro-8-methoxy-4-oxo-1,4-dihydro-quinoline-3-carboxylic acid] were, in that order, 0.5 µg/mL (≈ 1.18 µM), 4 µg/mL (≈ 9.4 µM), 0.12 µg/mL (≈ 0.282 µM), 8 µg/mL (≈ 18.8 µM) and 0.5 µg/mL (≈ 1.18 µM).
The like results for `COc1c(-c2cc3n(c2)C[C@@H](C)N(C)C3)c(F)cc2c(=O)c(C(=O)O)cn(C3CC3)c12` [Compound 14, 1-Cyclopropyl-7-(2,3R-dimethyl-1,2,3,4-tetrahydro-pyrrolo[1,2-a]pyrazin-7-yl)-6-fluoro-8-methoxy-4-oxo-1,4-dihydro-quinoline-3-carboxylic acid] were, in that order, 1 µg/mL (≈ 2.35 µM), 8 µg/mL (≈ 18.8 µM), 0.25 µg/mL (≈ 0.588 µM), over 16 µg/mL and 2 µg/mL (≈ 4.7 µM).
With `COc1c(-c2cc3n(c2)C[C@H](CO)N(C)C3)c(F)cc2c(=O)c(C(=O)O)cn(C3CC3)c12` [Compound 15, 1-Cyclopropyl-6-fluoro-7-(3R-hydroxymethyl-2-methyl-1,2,3,4-tetrahydro-pyrrolo[1,2-a]pyrazin-7-yl)-8-methoxy-4-oxo-1,4-dihydro-quinoline-3-carboxylic acid], the MIC was determined as 1 µg/mL (≈ 2.27 µM) in test [1]; 8 µg/mL (≈ 18.1 µM) in test [2]; 0.12 µg/mL (≈ 0.272 µM) in test [3]; 16 µg/mL (≈ 36.2 µM) in test [4]; 4 µg/mL (≈ 9.06 µM) in test [5].
The like results for `COc1c(-c2cc3n(c2)CCN[C@H]3C)c(F)cc2c(=O)c(C(=O)O)cn(C3CC3)c12` [Compound 16, 1-Cyclopropyl-6-fluoro-8-methoxy-7-(1S-methyl-1,2,3,4-tetrahydro-pyrrolo[1,2-a]pyrazin-7-yl)-4-oxo-1,4-dihydro-quinoline-3-carboxylic acid] were, in that order, 0.5 µg/mL (≈ 1.22 µM), 4 µg/mL (≈ 9.72 µM), 0.12 µg/mL (≈ 0.292 µM), 8 µg/mL (≈ 19.4 µM) and 2 µg/mL (≈ 4.86 µM).
In the case of `COc1c(-c2cc3n(c2)CCN[C@@H]3C)c(F)cc2c(=O)c(C(=O)O)cn(C3CC3)c12` [Compound 17, 1-Cyclopropyl-6-fluoro-8-methoxy-7-(1R-methyl-1,2,3,4-tetrahydro-pyrrolo[1,2-a]pyrazin-7-yl)-4-oxo-1,4-dihydro-quinoline-3-carboxylic acid], the MIC in test [1] was 2 µg/mL (≈ 4.86 µM); in test [2] it was 16 µg/mL (≈ 38.9 µM); in test [3] it was 0.25 µg/mL (≈ 0.608 µM); in test [4], over 16 µg/mL; in test [5] it was 8 µg/mL (≈ 19.4 µM).

Source of the values: patent US20090270379A1, “QUINOLONE DERIVATIVES USEFUL AS ANTIBACTERIAL AGENTS” (priority 2008, published 2009).
